Data taken from the NIST ThermoML archive (doi:10.1016/j.jct.2011.02.018).
Numbers after ± are expanded uncertainties.

Experiment: xn = mol fraction of the nth substance listed
Settings: 101 kPa, Liquid; for viscosity: Concentric cylinders viscometry; for mass density: Vibrating tube method

COC(C)(C)C [2-methoxy-2-methylpropane] + CCO
Settings	mass density, 293.15 K [kg/m3]	mass density, 298.15 K [kg/m3]	mass density, 303.15 K [kg/m3]	mass density, 308.15 K [kg/m3]	viscosity, 293.15 K [mPa·s]	viscosity, 298.15 K [mPa·s]	viscosity, 303.15 K [mPa·s]	viscosity, 308.15 K [mPa·s]
x1 = 0.0097	789.03 ± 0.23	784.78 ± 0.23	780.44 ± 0.23	776.08 ± 0.23	1.174 ± 0.048	1.067 ± 0.043	0.9713 ± 0.04	0.884 ± 0.036
x1 = 0.0198	788.28 ± 0.23	783.99 ± 0.23	779.64 ± 0.23	775.26 ± 0.23	1.146 ± 0.047	1.043 ± 0.042	0.9506 ± 0.039	0.8659 ± 0.035
x1 = 0.0301	787.54 ± 0.23	783.23 ± 0.23	778.87 ± 0.23	774.47 ± 0.23	1.118 ± 0.046	1.027 ± 0.042	0.9348 ± 0.038	0.8484 ± 0.035
x1 = 0.0402	786.85 ± 0.23	782.54 ± 0.23	778.16 ± 0.23	773.74 ± 0.23	1.092 ± 0.044	0.9956 ± 0.041	0.9088 ± 0.037	0.8298 ± 0.034
x1 = 0.0502	786.37 ± 0.23	782.01 ± 0.23	777.63 ± 0.23	773.2 ± 0.23	1.073 ± 0.044	0.9782 ± 0.04	0.893 ± 0.036	0.8165 ± 0.033
x1 = 0.0583	785.66 ± 0.23	781.32 ± 0.23	776.91 ± 0.23	772.46 ± 0.23	1.049 ± 0.043	0.9582 ± 0.039	0.8745 ± 0.036	0.7986 ± 0.033
x1 = 0.07	784.87 ± 0.23	780.51 ± 0.23	776.08 ± 0.23	771.61 ± 0.23	1.023 ± 0.042	0.9337 ± 0.038	0.854 ± 0.035	0.7813 ± 0.032
x1 = 0.0801	784.2 ± 0.23	779.82 ± 0.23	775.37 ± 0.23	770.89 ± 0.23	1 ± 0.041	0.9146 ± 0.037	0.8364 ± 0.034	0.7634 ± 0.031
x1 = 0.0861	783.96 ± 0.23	779.52 ± 0.23	775.09 ± 0.23	770.6 ± 0.23	0.9912 ± 0.04	0.9061 ± 0.037	0.8291 ± 0.034	0.7578 ± 0.031
x1 = 0.1009	782.99 ± 0.23	778.56 ± 0.23	774.11 ± 0.23	769.6 ± 0.23	0.9622 ± 0.039	0.8805 ± 0.036	0.806 ± 0.033	0.7369 ± 0.03
x1 = 0.154	779.59 ± 0.23	775.08 ± 0.23	770.56 ± 0.23	765.97 ± 0.23	0.8624 ± 0.035	0.792 ± 0.032	0.7283 ± 0.03	0.6689 ± 0.027
x1 = 0.2006	776.77 ± 0.23	772.21 ± 0.23	767.62 ± 0.23	762.96 ± 0.23	0.7889 ± 0.032	0.7263 ± 0.03	0.6694 ± 0.027	0.6147 ± 0.025
x1 = 0.2471	774.06 ± 0.23	769.46 ± 0.23	764.79 ± 0.23	760.08 ± 0.23	0.7261 ± 0.03	0.6707 ± 0.028	0.6185 ± 0.025	0.5661 ± 0.023
x1 = 0.2975	771.22 ± 0.23	766.56 ± 0.23	761.83 ± 0.23	757.06 ± 0.24	0.6675 ± 0.027	0.6182 ± 0.025	0.5731 ± 0.024	0.5259 ± 0.022
x1 = 0.3487	768.46 ± 0.23	763.75 ± 0.23	758.96 ± 0.23	754.12 ± 0.24	0.6166 ± 0.025	0.5722 ± 0.024	0.5309 ± 0.022	0.4855 ± 0.02
x1 = 0.3976	765.94 ± 0.23	761.16 ± 0.23	756.32 ± 0.24	751.43 ± 0.24	0.5761 ± 0.024	0.5357 ± 0.022	0.4954 ± 0.021	0.4552 ± 0.019
x1 = 0.4532	763.17 ± 0.23	758.36 ± 0.24	753.45 ± 0.24	748.5 ± 0.24	0.5354 ± 0.022	0.4987 ± 0.021	0.4638 ± 0.019	0.4257 ± 0.018
x1 = 0.5007	760.96 ± 0.23	756.08 ± 0.24	751.15 ± 0.24	746.15 ± 0.24	0.5062 ± 0.021	0.4708 ± 0.019	0.4353 ± 0.018	0.3994 ± 0.017
x1 = 0.5505	758.76 ± 0.24	753.83 ± 0.24	748.85 ± 0.24	743.8 ± 0.24	0.4798 ± 0.02	0.4482 ± 0.019	0.4155 ± 0.017	0.379 ± 0.016
x1 = 0.5998	756.62 ± 0.24	751.67 ± 0.24	746.63 ± 0.24	741.53 ± 0.24	0.4564 ± 0.019	0.426 ± 0.018	0.3967 ± 0.017	0.363 ± 0.015
x1 = 0.6484	754.48 ± 0.24	749.51 ± 0.24	744.43 ± 0.24	739.29 ± 0.24	0.4361 ± 0.018	0.4083 ± 0.017	0.3808 ± 0.016	0.3487 ± 0.015
x1 = 0.6995	752.35 ± 0.24	747.32 ± 0.24	742.19 ± 0.24	737 ± 0.24	0.4156 ± 0.017	0.39 ± 0.016	0.3632 ± 0.015	0.3313 ± 0.014
x1 = 0.749	750.35 ± 0.24	745.3 ± 0.24	740.14 ± 0.24	734.91 ± 0.24	0.3998 ± 0.017	0.3751 ± 0.016	0.3459 ± 0.015	0.3273 ± 0.014
x1 = 0.7995	748.36 ± 0.24	743.27 ± 0.24	738.06 ± 0.24	732.8 ± 0.24	0.3844 ± 0.016	0.3616 ± 0.015	0.3381 ± 0.014	0.3084 ± 0.013
x1 = 0.8496	746.44 ± 0.24	741.31 ± 0.24	736.08 ± 0.24	730.78 ± 0.24	0.3715 ± 0.016	0.3488 ± 0.015	0.3271 ± 0.014	0.3025 ± 0.013
x1 = 0.9009	744.51 ± 0.24	739.34 ± 0.24	734.07 ± 0.24	728.75 ± 0.24	0.3589 ± 0.015	0.3384 ± 0.014	0.3159 ± 0.013	0.2963 ± 0.013
x1 = 0.9093	744.2 ± 0.24	739.04 ± 0.24	733.77 ± 0.24	728.45 ± 0.24	0.3573 ± 0.015	0.3382 ± 0.014	0.3136 ± 0.013	0.2948 ± 0.013
x1 = 0.9166	743.9 ± 0.24	738.72 ± 0.24	733.47 ± 0.24	728.14 ± 0.24	0.3534 ± 0.015	0.3338 ± 0.014	0.3143 ± 0.013	0.2965 ± 0.013
x1 = 0.9299	743.35 ± 0.24	738.18 ± 0.24	732.9 ± 0.24	727.57 ± 0.24	0.352 ± 0.015	0.3326 ± 0.014	0.3136 ± 0.013	0.2908 ± 0.012
x1 = 0.9398	742.96 ± 0.24	737.79 ± 0.24	732.51 ± 0.24	727.17 ± 0.24	0.35 ± 0.015	0.3294 ± 0.014	0.3107 ± 0.013	0.2884 ± 0.012
x1 = 0.9501	742.54 ± 0.24	737.38 ± 0.24	732.09 ± 0.24	726.76 ± 0.24	0.348 ± 0.015	0.3264 ± 0.014	0.3068 ± 0.013	0.2842 ± 0.012
x1 = 0.9597	742.15 ± 0.24	736.97 ± 0.24	731.71 ± 0.24	726.36 ± 0.24	0.3458 ± 0.015	0.3256 ± 0.014	0.3066 ± 0.013	0.2829 ± 0.012
x1 = 0.968	741.84 ± 0.24	736.66 ± 0.24	731.37 ± 0.24	726.03 ± 0.24	0.3444 ± 0.015	0.3247 ± 0.014	0.3062 ± 0.013	0.282 ± 0.012
x1 = 0.9802	741.35 ± 0.24	736.15 ± 0.24	730.87 ± 0.24	725.52 ± 0.24	0.3418 ± 0.014	0.3226 ± 0.014	0.304 ± 0.013	0.2809 ± 0.012
x1 = 0.9868	741.1 ± 0.24	735.92 ± 0.24	730.61 ± 0.24	725.26 ± 0.24	0.3421 ± 0.014	0.3209 ± 0.014	0.3005 ± 0.013	0.2794 ± 0.012
